For assay [1], the target named is T1, human 5-HT2CR (Homo sapiens, UniProt P28335).
T1 construct: expressed in transfected cells
T1 sequence (P28335 33-458): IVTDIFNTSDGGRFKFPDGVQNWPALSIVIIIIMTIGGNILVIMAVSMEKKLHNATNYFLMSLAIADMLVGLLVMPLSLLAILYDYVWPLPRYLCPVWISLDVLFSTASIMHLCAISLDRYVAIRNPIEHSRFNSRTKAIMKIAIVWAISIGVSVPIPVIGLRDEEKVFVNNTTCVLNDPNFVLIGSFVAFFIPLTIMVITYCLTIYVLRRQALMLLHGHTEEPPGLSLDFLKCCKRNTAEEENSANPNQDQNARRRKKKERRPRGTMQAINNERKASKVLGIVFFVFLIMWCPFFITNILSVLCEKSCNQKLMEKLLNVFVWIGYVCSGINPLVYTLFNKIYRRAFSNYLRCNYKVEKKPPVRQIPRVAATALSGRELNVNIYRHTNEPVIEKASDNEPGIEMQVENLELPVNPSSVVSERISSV
The assay can be described thus: Radioligand binding assay (NIMH PDSP), 5-HT2CR. The settings on record: read-out: binding affinity (Ki) 5-HT2CR. The protocol:
(§1) Receptor Binding Assays. In vitro binding assay and Ki data were performed by the US National Institute of Mental Health Psychoactive Drug Screening Program (NIMH PDSP). Drugs were screened against recombinant, stably expressed human 5-HT2AR, 5-HT2BR, 5-HT2CR and H1. For specific binding assays please refer to detailed procedures at https://pdspdb.unc.edu/pdspWeb/ (Besnard, J. et al., Nature, 492, 215-220, 2012).

Another assay addresses human H1 receptor (Homo sapiens, UniProt P35367). The assay can be described thus: Radioligand binding assay (NIMH PDSP), H1. More on the design: expressed in transfected cells. The settings on record: read-out: binding affinity (Ki) H1. The protocol: as §1
Assay [2] deals with T2, human 5-HT2BR (Homo sapiens, UniProt P41595).
T2 construct: expressed in transfected cells
The assay can be described thus: biochemical. Type of assay: binding. The settings on record: for Ki: read-out: binding affinity (Ki) 5-HT2BR; for specificity / selectivity for 5-HT2BR over other 5-HT2R subtypes: radioligand binding. The protocol: as §1

Assay [3] addresses T3, human 5-HT2AR (Homo sapiens, UniProt P28223).
T3 construct: expressed in transfected cells
The assay can be described thus: biochemical. Type of assay: binding. The conditions noted are these: read-out: binding affinity (Ki) 5-HT2AR. As for the experimental part:
as §1

The target in assay [4] is T1, human 5-HT2CR.
Assay [5] concerns the target T2, human 5-HT2BR.
Assay [6] has as its target T3, human 5-HT2AR. The settings on record: read-out: binding affinity (Ki) 5-HT2A / 5-HT2AR, cited from earlier work.
For the next assay, the system named is scn1lab mutant zebrafish. The assay can be described thus: Locomotion assay of high-velocity seizure-like swim behavior. The class given is in vivo, zebrafish (Danio rerio). The conditions noted are these: for effect on seizure-like swim behavior (change in mean velocity): commercial 5-HT2BR/dopamine agonists, three concentrations; for effect on seizure-like swim behavior (change in mean velocity) / suppression of seizure-like swim behavior (change in mean velocity): 30 and 90 min exposure, threshold ≥40%; for suppression of seizure-like swim behavior (change in mean velocity): independently resynthesized compounds retested at 10, 50, 100 and 250 μM; for suppression of seizure-like swim behavior (change in mean swim velocity): initial library screen at 100 μM and 250 μM, 5 dpf larvae, threshold reduction ≥40%. From the text: Zebrafish maintenance. Zebrafish were raised under standard laboratory conditions in accordance with requirements outlined in the Guide for the Care and Use of Animals (ebrary Inc., 2011) and experiments were approved by the Institutional Animal Care and Use Committee (protocol #AN108659-03). Embryos were obtained by natural spawning of scn1lab (didy^s552) heterozygous animals that had been outcrossed to TL strain. Homozygous scn1lab mutants (n=2500) have dispersed melanosomes and appear visibly darker by 3 dpf compared to WT larvae.
Seizure monitoring. At 5 dpf individual zebrafish larvae were placed into a single well of a clear flat-bottomed 96-well microplate containing embryo media. Larvae were selected randomly as sex determination is not possible at this stage of development. All drug screening experiments were conducted in an unbiased manner by investigators blinded to the test compounds and all files coded for post hoc analysis. Microplates were placed inside the DanioVision and acclimated for 20 min at room temperature. Locomotion plots were obtained for each well at a recording epoch of 10 min using EthoVision XT software (DanioVision, Noldus Information Technology). Seizure scoring was performed using the following three-stage scale established for pentylenetetrazole-induced seizures: Stage 0, no or very little swim activity; Stage I, increased, brief bouts of swim activity; Stage II, rapid “whirlpool-like” circling swim behavior; and Stage III, paroxysmal whole-body clonus-like convulsions, and a brief loss of posture. WT fish are typically scored at Stage 0 or I. Plots were analyzed for distance travelled (in millimeters) and mean velocity (in millimeters per second). After 90 mins of drug exposure larvae were examined for toxic side-effects. Compounds that decreased or stopped the larva heartbeat, or reduced or eliminated the escape response when touched, were considered toxic.
Statistics. Data are presented as the mean±standard error of the mean (SEM), unless otherwise stated. For behavior analysis, the threshold for a change in mean swim velocity ≥40% (>1.5×SD of 250 control treated scn1lab) is considered significant. For comparison between more than two groups one-way ANOVA analysis was used. […] Differences considered statistically significant are indicated with asterisks (*P<0.05; **P<0.01).

Setting [7] is: known drugs and commercial compounds; read-out: binding affinity (Ki) 5-HT2C / 5-HT2CR; cited from earlier work.
[8] abbreviates: known drugs and commercial compounds; read-out: binding affinity (Ki) 5-HT2B / 5-HT2BR; cited from earlier work.
[9] abbreviates: clemizole analogs, recombinant human receptor.
Setting [10] is: known drugs and commercial compounds.

“Also recorded” adds a separate entry of the source. Read-outs that look alike come from different tables or passages of the source.

T3 sequence (P28223 whole entry): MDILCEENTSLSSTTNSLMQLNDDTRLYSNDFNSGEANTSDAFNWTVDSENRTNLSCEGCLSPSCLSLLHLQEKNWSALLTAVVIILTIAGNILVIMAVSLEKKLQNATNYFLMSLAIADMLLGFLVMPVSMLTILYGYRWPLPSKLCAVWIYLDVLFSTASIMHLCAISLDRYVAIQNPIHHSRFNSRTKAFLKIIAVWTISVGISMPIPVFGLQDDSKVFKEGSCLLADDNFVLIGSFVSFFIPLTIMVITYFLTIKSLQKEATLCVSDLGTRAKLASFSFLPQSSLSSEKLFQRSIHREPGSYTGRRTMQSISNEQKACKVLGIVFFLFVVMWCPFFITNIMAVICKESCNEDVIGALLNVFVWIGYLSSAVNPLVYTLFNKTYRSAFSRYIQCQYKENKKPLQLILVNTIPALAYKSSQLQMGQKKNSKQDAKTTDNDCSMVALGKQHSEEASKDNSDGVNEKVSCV
Sequence of human H1 receptor (P35367 whole entry): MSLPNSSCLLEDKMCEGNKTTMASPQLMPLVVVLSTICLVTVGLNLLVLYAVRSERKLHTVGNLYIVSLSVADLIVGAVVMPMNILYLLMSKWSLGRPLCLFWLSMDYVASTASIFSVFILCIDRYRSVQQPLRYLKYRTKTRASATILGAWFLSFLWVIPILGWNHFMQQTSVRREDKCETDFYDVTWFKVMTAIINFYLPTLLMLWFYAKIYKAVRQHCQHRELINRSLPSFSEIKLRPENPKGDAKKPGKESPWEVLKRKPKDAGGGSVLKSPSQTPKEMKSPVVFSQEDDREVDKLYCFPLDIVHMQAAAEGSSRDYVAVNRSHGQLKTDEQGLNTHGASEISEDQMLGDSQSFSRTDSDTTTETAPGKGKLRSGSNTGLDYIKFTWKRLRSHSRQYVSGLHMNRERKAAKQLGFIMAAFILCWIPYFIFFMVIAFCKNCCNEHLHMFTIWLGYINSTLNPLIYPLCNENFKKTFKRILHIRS
T2 sequence (P41595 whole entry): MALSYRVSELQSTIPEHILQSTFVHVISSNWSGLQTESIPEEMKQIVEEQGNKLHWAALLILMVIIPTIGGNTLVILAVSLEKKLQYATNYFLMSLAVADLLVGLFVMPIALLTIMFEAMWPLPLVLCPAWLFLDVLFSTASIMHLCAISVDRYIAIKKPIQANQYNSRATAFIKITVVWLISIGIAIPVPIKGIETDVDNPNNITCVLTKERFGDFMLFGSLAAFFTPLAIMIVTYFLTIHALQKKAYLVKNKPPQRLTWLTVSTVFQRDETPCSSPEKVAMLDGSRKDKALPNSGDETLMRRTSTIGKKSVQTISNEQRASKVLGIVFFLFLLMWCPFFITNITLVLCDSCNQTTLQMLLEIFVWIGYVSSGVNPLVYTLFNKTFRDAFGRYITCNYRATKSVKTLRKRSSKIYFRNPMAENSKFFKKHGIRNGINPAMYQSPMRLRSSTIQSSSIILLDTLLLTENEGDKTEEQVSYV

`Clc1ccc(Cn2c(CN3CCSC3)nc3ccccc32)cc1` [Compound 28]: the Ki on human 5-HT2CR [1] was 1080 nM; on human H1 receptor it was 44 nM; at human 5-HT2BR [2], 464 nM; at human 5-HT2AR [3] it was greater than 10000 nM.
For the compound `C[C@H](N)Cn1ccc2cc(F)c(Cl)cc21` [Ro 60-0175], the Ki on human 5-HT2CR [4] (setting [7]) was 9.1 nM; on human 5-HT2BR [5] (setting [8]), 4.3 nM; at human 5-HT2AR [6], 37.2 nM. For the same compound, the “effect on seizure-like swim behavior (change in mean velocity)” value (from here on “effect … (change in mean velocity)”) in the assay with scn1lab mutant zebrafish is “consistently decreased mean velocity and was borderline effective after 90 mins of drug exposure”.
Take `CN1CCc2cccc3c2[C@H]1Cc1ccc(O)c(O)c1-3` [apomorphine, reference compound]: the “effect … (change in mean velocity)” value in the assay with scn1lab mutant zebrafish is “significantly increased mean swim velocity”.
For the compound `Clc1ccc(Cn2c(CC3CCCC3)nc3ccccc32)cc1` [Compound 1, 1-[(4-Chlorophenyl)methyl]-2-(cyclopentylmethyl)-1H-benzimidazole], the results for the Ki at human 5-HT2CR [1] (setting [9]), on human 5-HT2BR [2] (setting [9]) and at human 5-HT2AR [3] were 2730 nM, 501 nM and greater than 10000 nM, respectively.
In the case of `CC(N)Cc1cccc(C(F)(F)F)c1` (centres unmarked) [norfenfluramine], the Ki on human 5-HT2CR [4] (read-out: binding affinity (Ki) 5-HT2C / 5-HT2CR; known drugs and commercial compounds; cited from earlier work) was 306 nM; at human 5-HT2BR [5] (read-out: binding affinity (Ki) 5-HT2B / 5-HT2BR; known drugs and commercial compounds; cited from earlier work), 18 nM; on human 5-HT2AR [6], 194 nM. In addition, the “effect … (change in mean velocity)” value in the assay with scn1lab mutant zebrafish is “suppressed convulsive swim behaviors in a concentration-dependent manner”.
`C=CCN1C[C@H](C(=O)N(CCCN(C)C)C(=O)NCC)C[C@@H]2c3cccc4[nH]cc(c34)C[C@H]21` [cabergoline]: the Ki at human 5-HT2CR [4] (setting [7]) was 692 nM; on human 5-HT2BR [5] (setting [8]), 1.2 nM; at human 5-HT2AR [6] (setting [10]) it was 6.17 nM. In addition, the “effect on convulsive swim behavior” value in the assay with scn1lab mutant zebrafish (250 μM) is on record as “significantly reduced convulsive swim-behavior”.
For the compound `CN(C)C1CCc2cc(O)c(O)cc2C1` (centres unmarked) [TL-99], the Ki on human 5-HT2CR [4] (setting [7]) was 2290 nM; at human 5-HT2BR [5] (setting [8]), 2040 nM; at human 5-HT2AR [6] (setting [10]), 2340 nM. Besides, the “effect … (change in mean velocity)” value with scn1lab mutant zebrafish is listed as “failed to elicit any behavioral effect”.
With `Clc1cccc(COc2cncc(N3CCNCC3)n2)c1` [CP-809,101], the Ki at human 5-HT2CR [4] (setting [7]) is 64 nM; on human 5-HT2BR [5] (setting [8]), 6 nM; on human 5-HT2AR [6] (setting [10]) it was 1.6 nM. Also, the “effect … (change in mean velocity)” value in the assay with scn1lab mutant zebrafish is on record as “biphasic response”.
For the compound `CCN(CC)Cc1nc2ccccc2n1Cc1ccc(Cl)cc1` [Compound 24, ({1-[(4-Chlorophenyl)methyl]-1H-1,3-benzodiazol-2-yl}methyl)diethylamine], the Ki was 1410 nM at human 5-HT2CR [1] (setting [9]), 3.7 nM on human H1 receptor (setting [9]), 115 nM at human 5-HT2BR [2] (setting [9]) and 1260 nM on human 5-HT2AR [3] (setting [9]).
On to `CN1CCN(Cc2nc3ccccc3n2Cc2ccc(Cl)cc2)CC1` [Compound 26], for which the Ki amounted to 313 nM on human 5-HT2CR [1], 1.2 nM on human H1 receptor, 20 nM on human 5-HT2BR [2] and 316 nM at human 5-HT2AR [3].
`CC(N)Cc1c[nH]c2ccc(OCc3cccs3)cc12` (centres unmarked) [BW-723C86, reference compound]: the “effect … (change in mean velocity)” value in the assay on scn1lab mutant zebrafish is recorded as “showed a decrease in seizure-like swim behavior, but also failed to reach our significance threshold”.
On to `c1ccc(Cn2c(CN3CCCC3)nc3ccccc32)cc1` [Compound 3], for which the Ki amounted to 292 nM on human 5-HT2CR [1], 4.8 nM at human H1 receptor, 83 nM at human 5-HT2BR [2] and 327 nM on human 5-HT2AR [3].
As to `Cl.Clc1cccc(N2CCNCC2)c1` [mCPP, 1-(3-Chlorophenyl)piperazine hydrochloride, reference compound], in the assay on scn1lab mutant zebrafish, the “effect … (change in mean velocity)” value is “biphasic response”.
As to `CCCn1c(CN2CCCC2)nc2ccccc21` [Compound 5], the Ki at human 5-HT2CR [1] is greater than 10000 nM; on human H1 receptor, 362 nM; at human 5-HT2BR [2], 219 nM; at human 5-HT2AR [3], greater than 10000 nM. The “specificity / selectivity for 5-HT2BR over other 5-HT2R subtypes” value on human 5-HT2BR [2] is recorded as “specific binding for 5HT2BR; also recorded: selectivity for 5-HT2BR”. In the assay with scn1lab mutant zebrafish, the “suppression of seizure-like swim behavior (change in mean velocity)” value is “no significant effect on the high-speed seizure-like behavior; also recorded: no significant effect on the swim behavior”. In the assay on scn1lab mutant zebrafish, the “suppression of seizure-like swim behavior (change in mean swim velocity)” value is on record as “no significant effect on swim behavior”.
Regarding `Fc1ccc(Cn2c(CN3CCCC3)nc3ccccc32)cc1` [Compound 7], the Ki was 345 nM on human 5-HT2CR [1], 1 nM on human H1 receptor, 46 nM on human 5-HT2BR [2] and 15 nM on human 5-HT2AR [3].
On the same counts, the results for `Clc1ccc(Cn2c(CN3CCCCC3)nc3ccccc32)cc1` [Compound 22] are 4580 nM, 8.5 nM, 306 nM and 623 nM.
With `Nc1ccc(Cn2c(CN3CCCC3)nc3ccccc32)cc1` [Compound 14], the Ki is greater than 10000 nM on human 5-HT2CR [1], 27 nM on human H1 receptor, 606 nM at human 5-HT2BR [2] and greater than 10000 nM on human 5-HT2AR [3]. Further, the “specificity / selectivity for 5-HT2BR over other 5-HT2R subtypes” value on human 5-HT2BR [2] was “specific binding for 5HT2BR; also recorded: selectivity for 5-HT2BR”. Besides, the “suppression of seizure-like swim behavior (change in mean velocity)” value with scn1lab mutant zebrafish was “no significant effect on the high-speed seizure-like behavior; also recorded: no significant effect on the swim behavior”. Moreover, the “suppression of seizure-like swim behavior (change in mean swim velocity)” value in the assay with scn1lab mutant zebrafish is on record as “no significant effect on swim behavior”.
`Clc1ccc(Cn2c(CN3CCCC3)cc3ccccc32)cc1` [Compound 11, 1-[(4-Chlorophenyl)methyl]-2-[(pyrrolidin-1-yl)methyl]-1H-indole]: the Ki at human 5-HT2CR [1] (setting [9]) amounted to 248 nM; on human H1 receptor (setting [9]) it was 6.4 nM; at human 5-HT2BR [2] (setting [9]) it was 134 nM; on human 5-HT2AR [3] (setting [9]), 631 nM.

The record behind these values is patent publication US20220226508A1, “METHODS AND COMPOSITIONS FOR TREATING EPILEPSY” (THE REGENTS OF THE UNIVERSITY OF CALIFORNIA, priority 2019, published 2022).
